Measurements as given in the CombiSolv-Exp solvation set (Vermeire and Green 2021).

Assay: solvent given as SMILES

C1CCCCCC1
Conditions | solvation free energy, 298 K [kcal/mol]
in CC(C)O | -4.24
in CCCCCCCCCCCCCCCC | -4.83
in CCCO | -4.27
in CN1CCCC1=O | -3.99
in CN(C)C=O | -3.79
in CS(C)=O | -3.1
in N#CCCCCC#N | -3.34
in NCCO | -2.41
in O | 0.79
in O=Cc1ccco1 | -3.85
in OCc1ccco1 | -3.74

CCCCCN(C)N=O
Conditions | solvation free energy, 298 K [kcal/mol]
in O | -5.05

CCNc1ccccc1
Conditions | solvation free energy, 298 K [kcal/mol]
in O | -4.76

Clc1ccccc1
Conditions | solvation free energy, 298 K [kcal/mol]
in C1CCOC1 | -6.04
in C1COCCO1 | -5.78
in CC(=O)N(C)C | -5.01
in CC(C)(C)O | -5.03
in CC(C)=O | -5.65
in CC(C)CC(C)(C)C | -4.92
in CC(C)CCO | -5.12
in CC(C)CO | -5.09
in CC(C)O | -4.92
in CC(O)CO | -4.36
in CCC(C)O | -5.09
in CCCCCC | -5.21
in CCCCCCC | -5.17
in CCCCCCCCCC | -4.93
in CCCCCCCCCCCCCCCC | -4.94
in CCCCCO | -5.21
in CCCCCl | -5.59
in CCOC(C)=O | -5.66
in CN(C)C=O | -5.66
in CNC(C)=O | -5.17
in CO | -5.01
in COCCO | -5.23
in Cc1ccc(C)cc1 | -5.52
in Cc1ccccc1C | -5.59
in ClCCl | -5.91
in N#Cc1ccccc1 | -5.63
in NC=O | -3.58
in O | -1.14
in OCCO | -3.88

CCCCCCCCCCCCc1ccccc1
Conditions | solvation free energy, 298 K [kcal/mol]
in CCC(C)=O | -11.5
in CCCCCCC | -11.8
in CCO | -10
in O=Cc1ccco1 | -10.4
in OCCOCCO | -7.69

CCCN(C)N=O
Conditions | solvation free energy, 298 K [kcal/mol]
in CC(C)CC(C)(C)C | -4.99

II
Conditions | solvation free energy, 298 K [kcal/mol]
in Brc1ccccc1 | -6.1
in CC(C)CC(C)(C)C | -4.5
in CCCCCC | -4.67
in CCCCCCC | -4.66
in CCCCCl | -5.63
in CCO | -6.27
in Cc1ccc(C)cc1 | -6.21
in Cc1cccc(C)c1 | -6.25
in Cc1ccccc1C | -6.23
in ClC(Cl)(Cl)Cl | -5.25
in ClC(Cl)Cl | -5.73
in ClCCCl | -5.72
in ClCCl | -5.62
in Clc1ccccc1 | -5.81
in O | -2.54

c1ccc2c(c1)OCCOCCOCCOCCOCCO2
Conditions | solvation free energy, 298 K [kcal/mol]
in O | -17.9

CCCCCCCOC(=O)c1ccccc1C(=O)OCCCCCC
Conditions | solvation free energy, 298 K [kcal/mol]
in O | -6.67

Clc1c(Cl)c(Cl)c2ccccc2c1Cl
Conditions | solvation free energy, 298 K [kcal/mol]
in CCCCCCCCC=CCCCCCCCC(=O)OCC(COC(=O)CCCCCCCC=CCCCCCCCC)OC(=O)CCCCCCCC=CCCCCCCCC | -9.56
in O | -2.69

c1ccsc1
Conditions | solvation free energy, 298 K [kcal/mol]
in CC(C)O | -3.75
in CCCCCCC | -4.09
in CCCO | -3.71
in CN1CCCC1=O | -4.68
in O | -1.39
in O=CN1CCOCC1 | -4.39
in c1ccccc1 | -4.65

C=CC(C)(O)CCC=C(C)C (stereo not drawn)
Conditions | solvation free energy, 298 K [kcal/mol]
in O | -4.17

CC1=CC2C(CC1)C2(C)C (stereo not drawn)
Conditions | solvation free energy, 298 K [kcal/mol]
in O | 0.78

CCCCCCCC=O
Conditions | solvation free energy, 298 K [kcal/mol]
in CCCCCCCCCCCCCCCC | -5.82
in CCCCCCCCO | -7.26
in NC=O | -4.31
in O | -2.29

[N-]=[N+]=O
Conditions | solvation free energy, 298 K [kcal/mol]
in CC(C)=O | -1.05
in CC(C)CC(C)(C)C | -0.69
in CC(C)O | -0.48
in CCC(C)=O | -0.94
in CCCCCC | -0.74
in CCCCCCC | -0.65
in CCCCCCCC | -0.6
in CCCCCCCCCC | -0.49
in CCCCCCCCCCO | -0.55
in CCCCCCCCO | -0.45
in CCCCCCO | -0.49
in CCCCCO | -0.5
in CCCCO | -0.55
in CCCCOC(C)=O | -0.98
in CCCO | -0.59
in CCO | -0.61
in CO | -0.69
in COC(C)=O | -1.09
in ClC(Cl)(Cl)Cl | -0.86
in ClC(Cl)Cl | -0.97
in Clc1ccccc1 | -0.68
in O | 0.31

COc1ccc2c(c1)c(CC(=O)O)c(C)n2C(=O)c1ccc(Cl)cc1
Conditions | solvation free energy, 298 K [kcal/mol]
in O | -15.1
